Reference: patent US20130225404A1, “PESTICIDAL COMBINATIONS” (SYNGENTA PARTICIPATIONS AG, priority 2010, published 2013)

System: rice plants
Experiment: Safening of rice grown from treated seeds against clodinafop herbicide, greenhouse tray test
Type: in vivo
Settings: rice seed treatment; for Av. shoot weight: average dry shoot weight five weeks after the clodinafop treatment; for Av. plant height: determined five weeks after the clodinafop treatment
Description: Various batches of treated rice seeds were sown in soil contained in trays (0.0425 m^2) at a rice density of 120 kg/ha and their growth monitored in a green house (at 25° C. during the day and 23° C. during the nght). The amounts of the active ingredients, i.e. thiamethoxam (Cruiser 350FS) and N-(2-methoxybenzoyl)-4-[(methylaminocarbonyl)amino]benzene-sulfonamide (safener) used for the rice seed treatment are indicated in the table below. The trays were flooded with water three days after sowing. Nine days after sowing the rice plants were sprayed with the herbicide clodinafop in an amount equal to 100 g/ha. The average plant height and the average dry shoot weight were determined five weeks after the clodinafop treatment.
A similar procedure was performed on untreated seeds except that the clodinafop treatment was omitted (control).
The same procedure as descrbed above was repeated except that the rice plants were treated with the herbicide clodinafop fifteen days after sowing.

[1] = clodinafop 100 g/ha sprayed 9 days after sowing
[2] = clodinafop 100 g/ha sprayed 15 days after sowing

SMILES	Av. shoot weight [1]	Av. plant height [1]	Av. shoot weight [2]	Av. plant height [2]
CNC(=O)Nc1ccc(S(=O)(=O)NC(=O)c2ccccc2OC)cc1 [A, N-(2-methoxybenzoyl)-4-[(methylaminocarbonyl)amino]benzene-sulfonamide]	230 mg	24 cm	400 mg	35 cm
CNC(=O)Nc1ccc(S(=O)(=O)NC(=O)c2ccccc2OC)cc1 [C, N-(2-methoxybenzoyl)-4-[(methylaminocarbonyl)amino]benzene-sulfonamide]	300 mg	30 cm	510 mg	40 cm
